US10865191B2, “Heterocyclic compounds useful as modulators of TNF alpha” (BRISTOL-MYERS SQUIBB COMPANY, priority 2015, dated 2020)
Values belong to the compound of their own block, whether it stands above or below them.

Target: TNFα (Homo sapiens, UniProt P01375)
Test: TNF induced HEK-Blue assay (NF-kB-driven secreted alkaline phosphatase reporter)
Format: cell-based
Conditions: TNFα 0.5 ng/mL, HEK-Blue-CD40L cells, 18 h; read-out: TNF induced HEK-Blue assay IC50 value
Procedure, shortened: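 HEK-Blue-CD40L cells (NF-kB-driven SEAP reporter), 20,000/well, added after 30 min pre-incubation of compound (0.004–25 μM final) with TNFα 0.5 ng/mL final at 37 °C; 18 h incubation. SEAP read with QUANTI-Blue at 620 nm; IC50 from 4-parameter logistic fit, normalized to unstimulated and stimulated DMSO controls.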

TNFα, sequence (P01375 77-233 limits assumed): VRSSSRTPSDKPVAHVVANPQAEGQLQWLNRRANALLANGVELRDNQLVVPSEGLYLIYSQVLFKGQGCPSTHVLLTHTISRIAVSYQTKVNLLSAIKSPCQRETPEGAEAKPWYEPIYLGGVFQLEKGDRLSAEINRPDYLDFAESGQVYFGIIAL

SMILES: CNC(=O)c1ccc(F)c([C@@H](C)Nc2c(Cl)cnc3ccc(-c4cnc(C(C)(C)O)nc4)cc23)c1 [Example 416, (R)-3-(1-((3-chloro-6-(2-(2-hydroxypropan-2-yl)pyrimidin-5-yl)quinolin-4-yl)amino)ethyl)-4-fluoro-N-methylbenzamide]
IC50: 1000 to 10000 nM

SMILES: COC(=O)CCS(=O)(=O)c1ccc(F)c([C@@H](C)Nc2c(Cl)cnc3ccc(-c4cnc(C(C)(C)O)nc4)cc23)c1 [Example 427, Methyl (R)-3-((3-(1-((3-chloro-6-(2-(2-hydroxypropan-2-yl)pyrimidin-5-yl)quinolin-4-yl)amino)ethyl)-4-fluorophenyl)sulfonyl)propanoate]
IC50: 1000 to 10000 nM

SMILES: C[C@@H](Nc1c(Cl)cnc2ccc(-c3cnc(C(C)(C)O)nc3)cc12)c1cc(-c2cc(C(=O)O)[nH]n2)ccc1F [Example 428, (R)-3-(3-(1-((3-chloro-6-(2-(2-hydroxypropan-2-yl)pyrimidin-5-yl)quinolin-4-yl)amino)ethyl)-4-fluorophenyl)-1H-pyrazole-5-carboxylic acid]
IC50: 10000 to 25000 nM

SMILES: Cc1nc2ccc(-c3cnc(C(C)(C)O)nc3)cc2c(N[C@H](C)c2cc(OCCO)ccc2F)c1Cl [Example 435, (R)-2-(5-(3-chloro-4-((1-(2-fluoro-5-(2-hydroxyethoxy)phenyl)ethyl)amino)-2-methylquinolin-6-yl)pyrimidin-2-yl)propan-2-ol]
IC50: < 1000 nM

SMILES: Cc1nc2ccc(-c3cnc(C(C)(C)O)nc3)cc2c(N[C@H](C)c2cc(CC(=O)O)ccc2F)c1Cl [Example 436, (R)-2-(3-(1-((3-chloro-6-(2-(2-hydroxypropan-2-yl)pyrimidin-5-yl)-2-methylquinolin-4-yl)amino)ethyl)-4-fluorophenyl)acetic acid]
IC50: < 1000 nM

SMILES: Cc1nc2ccc(-c3cnc(C(C)(C)O)nc3)cc2c(N[C@H](C)c2cccc(OCCO)c2)c1Cl [Example 437, (R)-2-(5-(3-chloro-4-((1-(3-(2-hydroxyethoxy)phenyl)ethyl)amino)-2-methylquinolin-6-yl)pyrimidin-2-yl)propan-2-ol]
IC50: < 1000 nM

SMILES: Cc1nc2ccc(-c3cnc(C(C)(C)O)nc3)cc2c(N[C@H](C)c2cccc(OCC(=O)O)c2)c1Cl [Example 438, (R)-2-(3-(1-((3-chloro-6-(2-(2-hydroxypropan-2-yl)pyrimidin-5-yl)-2-methylquinolin-4-yl)amino)ethyl)phenoxy)acetic acid]
IC50: 1000 to 10000 nM

SMILES: Cc1nc2ccc(-c3cnc(C(C)(C)O)nc3)cc2c(N[C@H](C)c2cc(OCC(=O)O)ccc2F)c1Cl [Example 439, (R)-2-(3-(1-((3-chloro-6-(2-(2-hydroxypropan-2-yl)pyrimidin-5-yl)-2-methylquinolin-4-yl)amino)ethyl)-4-fluorophenoxy)acetic acid]
IC50: < 1000 nM

SMILES: Cc1nc2ccc(-c3cnc(C(C)(C)O)nc3)cc2c(N[C@H](C)c2ccccc2F)c1Cl [Example 441, (R)-2-(5-(3-chloro-4-((1-(2-fluorophenyl)ethyl)amino)-2-methylquinolin-6-yl)pyrimidin-2-yl)propan-2-ol]
IC50: < 1000 nM

SMILES: Cc1nc2cc(F)c(-c3cnc(C(C)(C)O)nc3)cc2c(N[C@H](C)c2cc(OCCCO)ccc2F)c1Cl [Example 443, (R)-3-(3-(1-((3-chloro-7-fluoro-6-(2-(2-hydroxypropan-2-yl)pyrimidin-5-yl)-2-methylquinolin-4-yl)amino)ethyl)-4-fluorophenoxy)propan-1-ol]
IC50: < 1000 nM

SMILES: Cc1nc2ccc(-c3cnc(C(C)(C)O)nc3)cc2c(N[C@H](C)c2cc(OCCCO)ccc2F)c1Cl [Example 444, (R)-3-(3-(1-((3-chloro-6-(2-(2-hydroxypropan-2-yl)pyrimidin-5-yl)-2-methylquinolin-4-yl)amino)ethyl)-4-fluorophenoxy)propan-1-ol]
IC50: < 1000 nM

SMILES: Cc1nc2cc(F)c(-c3cnc(C(C)(C)O)nc3)cc2c(N[C@H](C)c2cc(CCC(N)=O)ccc2F)c1Cl [Example 445, (R)-3-(3-(1-((3-chloro-7-fluoro-6-(2-(2-hydroxypropan-2-yl)pyrimidin-5-yl)-2-methylquinolin-4-yl)amino)ethyl)-4-fluorophenyl)propanamide]
IC50: < 1000 nM

SMILES: Cc1nc2cc(F)c(-c3cnc(C(C)(C)O)nc3)cc2c(N[C@H](C)c2cc(CCC(=O)O)ccc2F)c1Cl [Example 446, (R)-3-(3-(1-((3-chloro-7-fluoro-6-(2-(2-hydroxypropan-2-yl)pyrimidin-5-yl)-2-methylquinolin-4-yl)amino)ethyl)-4-fluorophenyl)propanoic acid]
IC50: 1000 to 10000 nM

SMILES: Cc1nc2ccc(-c3cnc(N4CCNC(=O)C4)nc3)cc2c(N[C@H](C)c2cc(C(N)=O)ccc2F)c1Cl [Example 447, (R)-3-(1-((3-chloro-2-methyl-6-(2-(3-oxopiperazin-1-yl)pyrimidin-5-yl)quinolin-4-yl)amino)ethyl)-4-fluorobenzamide]
IC50: < 1000 nM

SMILES: Cc1nc2cc(F)c(-c3cnc(N4CCNC(=O)C4)nc3)cc2c(N[C@H](C)c2cc(C(N)=O)ccc2F)c1Cl [Example 448, (R)-3-(1-((3-chloro-7-fluoro-2-methyl-6-(2-(3-oxopiperazin-1-yl)pyrimidin-5-yl)quinolin-4-yl)amino)ethyl)-4-fluorobenzamide]
IC50: < 1000 nM

SMILES: Cc1nc2cc(F)c(-c3ccc(=O)[nH]c3)cc2c(N[C@H](C)c2cc(Br)ccc2F)c1Cl [Example 449, (R)-5-(4-((1-(5-bromo-2-fluorophenyl)ethyl)amino)-3-chloro-7-fluoro-2-methylquinolin-6-yl)pyridin-2(1H)-one]
IC50: < 1000 nM

SMILES: Cc1nc2cc(F)c(-c3ccc(=O)[nH]c3)cc2c(N[C@H](C)c2cc(C#N)ccc2F)c1Cl [Example 450, (R)-3-(1-((3-chloro-7-fluoro-2-methyl-6-(6-oxo-1,6-dihydropyridin-3-yl)quinolin-4-yl)amino)ethyl)-4-fluorobenzonitrile]
IC50: < 1000 nM

SMILES: COc1ccc(F)c([C@@H](C)Nc2c(Cl)cnc3ccccc23)c1 [Example 451, (R)-3-chloro-N-(1-(2-fluoro-5-methoxyphenyl)ethyl)quinolin-4-amine]
IC50: 1000 to 10000 nM

SMILES: C=CCc1ccc(F)c([C@@H](C)Nc2c(Cl)cnc3ccccc23)c1 [Example 452, (R)—N-(1-(5-allyl-2-fluorophenyl)ethyl)-3-chloroquinolin-4-amine]
IC50: 1000 to 10000 nM

SMILES: CCC(Nc1c(Cl)cnc2ccccc12)c1ccccc1F (stereo not shown) [Example 453, 3-chloro-N-(1-(2-fluorophenyl)propyl)quinolin-4-amine]
IC50: 1000 to 10000 nM

Further lines, results first:

IC50: < 1000 nM
SMILES: COC(=O)c1ccc(F)c([C@@H](C)Nc2c(Cl)cnc3ccc(-c4cnc(C(C)(C)O)nc4)cc23)c1 [Example 415, Methyl (R)-3-(1-((3-chloro-6-(2-(2-hydroxypropan-2-yl)pyrimidin-5-yl)quinolin-4-yl)amino)ethyl)-4-fluorobenzoate]

IC50: < 1000 nM
SMILES: C[C@@H](Nc1c(Cl)cnc2ccc(-c3cnc(C(C)(C)O)nc3)cc12)c1cc(C(=O)N(C)C)ccc1F [Example 417, (R)-3-(1-((3-chloro-6-(2-(2-hydroxypropan-2-yl)pyrimidin-5-yl)quinolin-4-yl)amino)ethyl)-4-fluoro-N,N-dimethylbenzamide]

IC50: < 1000 nM
SMILES: Cc1nc2ccc(-c3cnc(C(C)(C)O)nc3)cc2c(N[C@@H](c2cc(C(C)(C)O)ccc2F)C(F)F)c1Cl [Example 418, (S)-2-(5-(3-chloro-4-((2,2-difluoro-1-(2-fluoro-5-(2-hydroxypropan-2-yl)phenyl)ethyl)amino)-2-methylquinolin-6-yl)pyrimidin-2-yl)propan-2-ol]

IC50: < 1000 nM
SMILES: C[C@@H](Nc1c(Cl)cnc2ccc(-c3cnc(C(C)(C)O)nc3)cc12)c1cc(-c2c[nH]nn2)ccc1F [Example 419, (R)-2-(5-(3-chloro-4-((1-(2-fluoro-5-(1H-1,2,3-triazol-4-yl)phenyl)ethyl)amino)quinolin-6-yl)pyrimidin-2-yl)propan-2-ol]

IC50: < 1000 nM
SMILES: C[C@@H](Nc1c(Cl)cnc2ccc(-c3cnc(C(C)(C)O)nc3)cc12)c1cc(C=NO)ccc1F [Example 424, (R)-3-(1-((3-chloro-6-(2-(2-hydroxypropan-2-yl)pyrimidin-5-yl)quinolin-4-yl)amino)ethyl)-4-fluorobenzaldehyde oxime]

IC50: < 1000 nM
SMILES: C[C@@H](Nc1c(Cl)cnc2ccc(-c3cnc(C(C)(C)O)nc3)cc12)c1cc(S(C)(=O)=O)ccc1F [Example 425, (R)-2-(5-(3-chloro-4-((1-(2-fluoro-5-(methylsulfonyl)phenyl)ethyl)amino)quinolin-6-yl)pyrimidin-2-yl)propan-2-ol]

IC50: < 1000 nM
SMILES: C[C@@H](Nc1c(Cl)cnc2ccc(-c3cnc(C(C)(C)O)nc3)cc12)c1cc(S(N)(=O)=O)ccc1F [Example 426, (R)-3-(1-((3-chloro-6-(2-(2-hydroxypropan-2-yl)pyrimidin-5-yl)quinolin-4-yl)amino)ethyl)-4-fluorobenzenesulfonamide]

IC50: < 1000 nM
SMILES: C[C@@H](Nc1c(Cl)cnc2ccc(-c3cnc(C(C)(C)O)nc3)cc12)c1cc(CN)ccc1F [Example 429, (R)-2-(5-(4-((1-(5-(aminomethyl)-2-fluorophenyl)ethyl)amino)-3-chloroquinolin-6-yl)pyrimidin-2-yl)propan-2-ol]

IC50: < 1000 nM
SMILES: C[C@@H](Nc1c(Cl)cnc2ccc(-c3cnc(C(C)(C)O)nc3)cc12)c1cc(CO)ccc1F [Example 430, (R)-2-(5-(3-chloro-4-((1-(2-fluoro-5-(hydroxymethyl)phenyl)ethyl)amino)quinolin-6-yl)pyrimidin-2-yl)propan-2-ol]

IC50: < 1000 nM
SMILES: Cc1nc2ccc(-c3cnc(C(C)(C)O)nc3)cc2c(N[C@H](C)c2cc(CO)ccc2F)c1Cl [Example 431, (R)-2-(5-(3-chloro-4-((1-(2-fluoro-5-(hydroxymethyl)phenyl)ethyl)amino)-2-methylquinolin-6-yl)pyrimidin-2-yl)propan-2-ol]

IC50: < 1000 nM
SMILES: Cc1nc2ccc(C3C=NC(C(C)(C)O)=NC3)cc2c(N[C@H](C)c2cc(CO)ccc2F)c1Cl (stereo partly drawn) [Example 432, (R)-2-(5-(3-chloro-4-((1-(2-fluoro-5-(hydroxymethyl)phenyl)ethyl)amino)-2-methylquinolin-6-yl)-4,5-dihydropyrimidin-2-yl)propan-2-ol]
